# Measurements from patent US11911393B2, “Non-catalytic substrate-selective p38alpha-specific MAPK inhibitors with endothelial-stabilizing and anti-inflammatory activity, and methods of use thereof” (University of Maryland, Baltimore, priority 2016, dated 2024).
# Tested on: TNFα-induced gene expression in HMVECLs
# Experiment: RNASeq of TNFα-induced gene expression
# Assay type: cell-based, human
# Settings: 100 μM UM101, 10 μM SB203580
compound,measurement,setting,value
"C[S+]([O-])c1ccc(-c2nc(-c3ccncc3)c(-c3ccc(F)cc3)[nH]2)cc1 (stereo not shown) [SB203580, reference compound]",bin (gene expression response pattern),AC003092.1 (ENSG00000236453),7
same,bin (gene expression response pattern),AC010642.2 (ENSG00000269794),7
same,bin (gene expression response pattern),AC116366.6 (ENSG00000234290),8
same,bin (gene expression response pattern),ADAP1 (ENSG00000105963),7
same,bin (gene expression response pattern),ADM2 (ENSG00000128165),7
same,bin (gene expression response pattern),ANKRD55 (ENSG00000164512),8
same,bin (gene expression response pattern),APOBEC3G (ENSG00000239713),7
same,bin (gene expression response pattern),APOL2 (ENSG00000128335),7
same,bin (gene expression response pattern),APOL6 (ENSG00000221963),7
same,bin (gene expression response pattern),BPGM (ENSG00000172331),8
same,bin (gene expression response pattern),C1QTNF1 (ENSG00000173918),7
same,bin (gene expression response pattern),C6orf58 (ENSG00000184530),7
same,bin (gene expression response pattern),C8orf4 (ENSG00000176907),8
same,bin (gene expression response pattern),C11orf88 (ENSG00000183644),7
same,bin (gene expression response pattern),C15orf54 (ENSG00000175746),8
same,bin (gene expression response pattern),CCL1 (ENSG00000108702),7
same,bin (gene expression response pattern),CD40 (ENSG00000101017),7
same,bin (gene expression response pattern),CD69 (ENSG00000110848),8
same,bin (gene expression response pattern),CDON (ENSG00000064309),7
same,bin (gene expression response pattern),CLEC2D (ENSG00000069493),7
same,bin (gene expression response pattern),CSF2 (ENSG00000164400),8
same,bin (gene expression response pattern),CTC-231O11.1 (ENSG00000253522),7
same,bin (gene expression response pattern),CTD-2369P2.8 (ENSG00000267607),7
same,bin (gene expression response pattern),CX3CL1 (ENSG00000006210),7
same,bin (gene expression response pattern),DRD4 (ENSG00000069696),7
same,bin (gene expression response pattern),EBI3 (ENSG00000105246),8
same,bin (gene expression response pattern),EGLN3 (ENSG00000129521),7
same,bin (gene expression response pattern),ENKUR (ENSG00000151023),7
same,bin (gene expression response pattern),ERVFRD-1 (ENSG00000244476),8
same,bin (gene expression response pattern),ETV3L (ENSG00000253831),7
same,bin (gene expression response pattern),F2RL3 (ENSG00000127533),8
same,bin (gene expression response pattern),FAM101A (ENSG00000178882),8
same,bin (gene expression response pattern),GCH1 (ENSG00000131979),7
same,bin (gene expression response pattern),GPR37L1 (ENSG00000170075),7
same,bin (gene expression response pattern),GPR182 (ENSG00000166856),7
same,bin (gene expression response pattern),HAND1 (ENSG00000113196),8
same,bin (gene expression response pattern),HAS2 (ENSG00000170961),8
same,bin (gene expression response pattern),HELZ2 (ENSG00000130589),7
same,bin (gene expression response pattern),HEPACAM (ENSG00000165478),8
same,bin (gene expression response pattern): AC073850.6,"HMVECLs, TNFα",5
same,bin (gene expression response pattern): AGPAT9,"HMVECLs, TNFα",5
same,bin (gene expression response pattern): ARHGAP18,"HMVECLs, TNFα",5
same,bin (gene expression response pattern): ARHGEF28,"HMVECLs, TNFα",5
same,bin (gene expression response pattern): ARL11,"HMVECLs, TNFα",5
same,bin (gene expression response pattern): BAMBI,"HMVECLs, TNFα",1
same,bin (gene expression response pattern): BCL2L10,"HMVECLs, TNFα",5
same,bin (gene expression response pattern): BMF,"HMVECLs, TNFα",5
same,bin (gene expression response pattern): C2CD4B,"HMVECLs, TNFα",5
same,bin (gene expression response pattern): C19orf35,"HMVECLs, TNFα",5
same,bin (gene expression response pattern): CCL17,"HMVECLs, TNFα",3
same,bin (gene expression response pattern): CD200,"HMVECLs, TNFα",3
same,bin (gene expression response pattern): CD207,"HMVECLs, TNFα",3
same,bin (gene expression response pattern): CELF2-AS1,"HMVECLs, TNFα",5
same,bin (gene expression response pattern): CH25H,"HMVECLs, TNFα",5
same,bin (gene expression response pattern): CTA-212A2.1,"HMVECLs, TNFα",3
same,bin (gene expression response pattern): CTA-221G9.12,"HMVECLs, TNFα",5
same,bin (gene expression response pattern): CTB-152G17.6,"HMVECLs, TNFα",5
same,bin (gene expression response pattern): CXCL3,"HMVECLs, TNFα",5
same,bin (gene expression response pattern): CXCL5,"HMVECLs, TNFα",3
same,bin (gene expression response pattern): CXCL10,"HMVECLs, TNFα",3
same,bin (gene expression response pattern): CXCL11,"HMVECLs, TNFα",3
same,bin (gene expression response pattern): DLL4,"HMVECLs, TNFα",1
same,bin (gene expression response pattern): ELOVL7,"HMVECLs, TNFα",3
same,bin (gene expression response pattern): EPHX4,"HMVECLs, TNFα",5
same,bin (gene expression response pattern): ETV1,"HMVECLs, TNFα",1
same,bin (gene expression response pattern): EXOC3L4,"HMVECLs, TNFα",3
same,bin (gene expression response pattern): FAM84A,"HMVECLs, TNFα",5
same,bin (gene expression response pattern): FBX032,"HMVECLs, TNFα",5
same,bin (gene expression response pattern): FHL2,"HMVECLs, TNFα",5
same,bin (gene expression response pattern): FLRT3,"HMVECLs, TNFα",1
same,bin (gene expression response pattern): FP236383.10,"HMVECLs, TNFα",4
same,bin (gene expression response pattern): GBP1P1,"HMVECLs, TNFα",3
same,bin (gene expression response pattern): GBP4,"HMVECLs, TNFα",3
same,bin (gene expression response pattern): GFOD1,"HMVECLs, TNFα",5
same,bin (gene expression response pattern): GPR68,"HMVECLs, TNFα",2
same,bin (gene expression response pattern): GPR88,"HMVECLs, TNFα",3
same,bin (gene expression response pattern): GRPEL2,"HMVECLs, TNFα",5
same,bin (gene expression response pattern): HAS3,"HMVECLs, TNFα",3
same,bin (gene expression response pattern): HEY1,"HMVECLs, TNFα",5
same,bin (gene expression response pattern): HMSD,"HMVECLs, TNFα",5
same,bin (gene expression response pattern): HRCT1,"HMVECLs, TNFα",5
same,bin (gene expression response pattern): HTR1D,"HMVECLs, TNFα",5
same,bin (gene expression response pattern): IBA57-AS1,"HMVECLs, TNFα",5
same,bin (gene expression response pattern): ID1,"HMVECLs, TNFα",5
same,bin (gene expression response pattern): IDO1,"HMVECLs, TNFα",3
same,bin (gene expression response pattern): IL1B,"HMVECLs, TNFα",3
same,bin (gene expression response pattern): INPP4B,"HMVECLs, TNFα",5
same,bin (gene expression response pattern): JUNB,"HMVECLs, TNFα",5
same,bin (gene expression response pattern): KCNJ12,"HMVECLs, TNFα",1
same,bin (gene expression response pattern): KDM7A,"HMVECLs, TNFα",5
same,bin (gene expression response pattern): KIAA1211L,"HMVECLs, TNFα",1
same,bin (gene expression response pattern): KIT,"HMVECLs, TNFα",5
same,bin (gene expression response pattern): KLF15,"HMVECLs, TNFα",5
same,bin (gene expression response pattern): KSR2,"HMVECLs, TNFα",5
same,bin (gene expression response pattern): LINC00677,"HMVECLs, TNFα",3
same,bin (gene expression response pattern): LMCD1,"HMVECLs, TNFα",5
same,bin (gene expression response pattern): LONRF3,"HMVECLs, TNFα",5
same,bin (gene expression response pattern): LRFN1,"HMVECLs, TNFα",5
same,bin (gene expression response pattern): LRFN5,"HMVECLs, TNFα",2
same,bin (gene expression response pattern): LYL1,"HMVECLs, TNFα",5
